Patent US12495798B2, “Nicotinamide compound and herbicidal composition comprising compound” (KOREA RESEARCH INSTITUTE OF CHEMICAL TECHNOLOGY, priority 2019, dated 2025)

Experiments:
Format in all cases: in vivo
quack grass = assay: Herbicidal activity test against upland field weeds (foliar treatment test); design: key to Foliar treatment herbicidal activity, quack grass: 0 (no control); 100 (complete control); details: 50 g ai/ha, scale 0-100
In short: (§1)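 Greenhouse-grown plants (30±5 °C, 14/10 h light/dark) foliar hand-sprayed with compound in 50% acetone, 0.1% Tween-20 at 50 or 75 g a.i./ha. Control visually scored 0 (none) to 100 (complete) versus untreated after 14 days, or 21 days if needed.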

indian jointvetch = assay: as above; details: 50 g ai/ha, scale 0-100
In short: as §1

sorghum = assay: as above; details: Sorghum, 50 g ai/ha, scale 0-100
In short: as §1

cocklebur = assay: as above; details: Xanthium strumarium, 50 g ai/ha, scale 0-100
In short: as §1

bindweed = assay: as above; details: 50 g ai/ha, scale 0-100
In short: as §1

velvetleaf = assay: as above; details: Abutilon theophrasti, 50 g ai/ha, scale 0-100, read-out: Foliar treatment herbicidal activity, velvet leaf
In short: as §1

corn = assay: Phytotoxicity test for field crops (soil treatment test); design: key: 0 (no harm); 9 (complete withered)
Protocol: (§2) Experimental Example 4: Phytotoxicity Test for Field Crops (Soil Treatment Test)
(§3) Soil treatment was performed for sown crops and weeds in a square plastic pot having a surface area of 50 cm^2 filled with sterilized horticultural soil (pH 6.1, organic material 1.0%, clay 21%, silt 17%, sand 52%). As a fertilizer per pot, 0.5 g of horticultural mixed fertilizer (N:P:K=17:21:17) was treated by mixing with soil. Five kinds of crops such as rice, wheat, corn, soybean, and cotton were sown in each pot. One day after sowing, test compound solutions were made by diluting with the diluent (33% acetone, 0.1% Tween-20) so that the final treatment amount of the test compounds was 19˜300 g a.i./ha. The prepared test compound solutions were treated using a spray booth (SB6-016) at a treatment amount of 100 ml per 1 m^2 of treatment area. The treated crops were managed in greenhouse conditions (average temperature 30±5° C., light/dark=14/10 hours). External symptoms and phytotoxicity were visually investigated 10 and 20 days after treatment. In the evaluation of the phytotoxicity for the crop, the grade of 0 (no harm) to 9 (complete withered) was used. The results of Table 10 were obtained by evaluating phytotoxicity value to the untreated control.

cotton = assay: as above; design: key: 0 (no harm); 9 (complete withered)
Protocol: as §2, §3

wheat = assay: as above; design: key: 0 (no harm); 9 (complete withered)
Protocol: as §2, §3

rice = assay: as above; design: key: 0 (no harm); 9 (complete withered)
Protocol: as §2, §3

soybean = assay: as above; design: key: 0 (no harm); 9 (complete withered)
Protocol: as §2, §3

[1] = 50 g ai/ha, Corn (10 days after treatment)
[2] = 50 g ai/ha, Corn (20 days after treatment)
[3] = 100 g ai/ha, Corn (10 days after treatment)
[4] = 100 g ai/ha, Corn (20 days after treatment)
[5] = 50 g ai/ha, Cotton (10 days after treatment)
[6] = 50 g ai/ha, Cotton (20 days after treatment)
[7] = 100 g ai/ha, Cotton (10 days after treatment)
[8] = 100 g ai/ha, Cotton (20 days after treatment)
[9] = 50 g ai/ha, Wheat (10 days after treatment)
[10] = 50 g ai/ha, Wheat (20 days after treatment)
[11] = 100 g ai/ha, Wheat (10 days after treatment)
[12] = 100 g ai/ha, Wheat (20 days after treatment)
[13] = 50 g ai/ha, Rice (10 days after treatment)
[14] = 50 g ai/ha, Rice (20 days after treatment)
[15] = 100 g ai/ha, Rice (10 days after treatment)
[16] = 100 g ai/ha, Rice (20 days after treatment)
[17] = 50 g ai/ha, Soybean (10 days after treatment)
[18] = 50 g ai/ha, Soybean (20 days after treatment)
[19] = 100 g ai/ha, Soybean (10 days after treatment)
[20] = 100 g ai/ha, Soybean (20 days after treatment)

Row | SMILES | pest or weed control at 50 g/ha (indian jointvetch) [%] | plant injury at 50 g/ha (sorghum) [%] | pest or weed control at 50 g/ha (cocklebur) [%] | pest or weed control at 50 g/ha (bindweed) [%] | pest or weed control at 50 g/ha (velvetleaf) [%] | Soil treatment phytotoxicity, Corn (corn; [1]) | Soil treatment phytotoxicity, Corn (corn; [2]) | Soil treatment phytotoxicity, Corn (corn; [3]) | Soil treatment phytotoxicity, Corn (corn; [4]) | Soil treatment phytotoxicity, Cotton (cotton; [5]) | Soil treatment phytotoxicity, Cotton (cotton; [6]) | Soil treatment phytotoxicity, Cotton (cotton; [7]) | Soil treatment phytotoxicity, Cotton (cotton; [8]) | Soil treatment phytotoxicity, Wheat (wheat; [9]) | Soil treatment phytotoxicity, Wheat (wheat; [10]) | Soil treatment phytotoxicity, Wheat (wheat; [11]) | Soil treatment phytotoxicity, Rice (rice; [13]) | Soil treatment phytotoxicity, Rice (rice; [14]) | Soil treatment phytotoxicity, Rice (rice; [15]) | Soil treatment phytotoxicity, Rice (rice; [16]) | also measured
1 | Cc1nc(COCc2nc(C(F)(F)F)ccc2C(=S)Nc2nnnn2C)nn1C [Compound No. 2-117, 2-(((1,5-dimethyl-1H-1,2,4-triazol-3-yl)methoxy)methyl)-N-(1-methyl-1H-tetrazol-5-yl)-6-(trifluoromethyl)pyridin-3-carbothioamide] | 40 | 40 | 90 | 70 | 90 | 1 | 3 | 2 | 2 | 0 | 9 | 0 | 9 | 0 | 0 | 0 | 0 | 2 | 0 | 3 | Foliar treatment herbicidal activity, quack grass (quack grass): 0; Soil treatment phytotoxicity, Wheat (wheat; [12]): 0
2 | CON(Cc1nnn(C)n1)Cc1nc(C(F)(F)F)ccc1C(=O)Nc1nnnn1C [Compound No. 2-97, 2-((methoxy((2-methyl-2H-tetrazol-5-yl)methyl)amino)methyl)-N-(1-methyl-1H-tetrazol-5-yl)-6-(trifluoromethyl)nicotinamide] | 95 | 50 | 95 | 80 | 95 | 0 | 0 | 1 | 0 | 1 | 7 | 4 | 8 | 0 | 0 | 0 | 7 | 9 | 9 | 9 | Foliar treatment herbicidal activity, quack grass (quack grass): 0; Soil treatment phytotoxicity, Soybean (soybean; [17]): 0; Soil treatment phytotoxicity, Soybean (soybean; [18]): 0; Soil treatment phytotoxicity, Soybean (soybean; [19]): 0; Soil treatment phytotoxicity, Soybean (soybean; [20]): 0
3 | Cn1nnc(CSCc2nc(C(F)(F)F)ccc2C(=O)N(c2nnnn2C)S(C)(=O)=O)n1 [Compound No. 2-110, N-(1-methyl-1H-tetrazol-5-yl)-2-((((2-methyl-2H-tetrazol-5-yl)methyl)thio)methyl)-N-(methylsulfonyl)-6-(trifluoromethyl)nicotinamide] | 95 | 20 | 95 | 98 | 80 | 0 | 0 | 0 | 0 | 0 | 0 | 0 | 0 | 0 | 0 | 0 | 0 | 0 | 0 | 0 | Foliar treatment herbicidal activity, quack grass (quack grass): 0; Soil treatment phytotoxicity, Soybean (soybean; [18]): 0; Soil treatment phytotoxicity, Soybean (soybean; [20]): 0; Soil treatment phytotoxicity, Wheat (wheat; [12]): 0
4 | Cc1nc(COCc2nc(C(F)(F)F)ccc2C(=O)Nc2nnnn2C)nn1C [Compound No. 2-116, 2-(((1,5-dimethyl-1H-1,2,4-triazol-3-yl)methoxy)methyl)-N-(1-methyl-1H-tetrazol-5-yl)-6-(trifluoromethyl)nicotinamide] | 40 | 40 | 98 | 90 | 90 | 1 | 4 | 1 | 3 | 1 | 3 | 1 | 2 | 0 | 2 | 0 | 0 | 3 | 0 | 2 | Foliar treatment herbicidal activity, quack grass (quack grass): 0; Soil treatment phytotoxicity, Wheat (wheat; [12]): 0
5 | Cn1nc(COCc2nc(C(F)(F)F)ccc2C(=O)Nc2nnnn2C)nc1C#N [Compound No. 2-134, 2-(((5-cyano-1-methyl-1H-1,2,4-triazol-3-yl)methoxy)methyl)-N-(1-methyl-1H-tetrazol-5-yl)-6-(trifluoromethyl)nicotinamide] | 70 | 10 | 50 | 98 | 60 | 0 | 0 | 0 | 0 | 0 | 1 | 0 | 2 | 0 | 0 | 0 | 1 | 1 | 5 | 4 | pest or weed control at 50 g/ha (quack grass): 10%; Soil treatment phytotoxicity, Soybean (soybean; [17]): 0; Soil treatment phytotoxicity, Soybean (soybean; [18]): 0; Soil treatment phytotoxicity, Soybean (soybean; [19]): 0; Soil treatment phytotoxicity, Soybean (soybean; [20]): 0; Soil treatment phytotoxicity, Wheat (wheat; [12]): 0
6 | Cn1nc(COCc2nc(C(F)(F)F)ccc2C(=O)Nc2nnnn2C)nc1Br [Compound No. 2-136, 2-(((5-bromo-1-methyl-1H-1,2,4-triazol-3-yl)methoxy)methyl)-N-(1-methyl-1H-tetrazol-5-yl)-6-(trifluoromethyl)nicotinamide] | 20 | 20 | 95 | 50 | 40 | 0 | 0 | 0 | 0 | 0 | 0 | 1 | 0 | 0 | 0 | 0 | 3 | 4 | 4 | 7 | Foliar treatment herbicidal activity, quack grass (quack grass): 0; Soil treatment phytotoxicity, Soybean (soybean; [17]): 0; Soil treatment phytotoxicity, Soybean (soybean; [18]): 0; Soil treatment phytotoxicity, Wheat (wheat; [12]): 0
